Measurements as given in patent publication US10913734B2, “Substituted aminothiazoles” (BARUCH S. BLUMBERG INSTITUTE, priority 2016, dated 2021).

What was measured:
[1] = test system: THLE2 and/or PH5CH (normal hepatocyte-derived) cell versus Huh7; assay: Selectivity of cytotoxicity: CC50 in normal hepatocyte-derived cells versus liver cancer derived cells (MTT assay); format: cell-based; conditions: ratio of CC50 between Huh7 and THLE2 and/or PH5CH (normal hepatocyte-derived) cell
Source text: (§1) Huh-7 cells and derived from hepatocellular carcinoma cells, and were donated by Dr. Xuanyong Lu, (Drexel University College of Medicine, Doylestown, Pa.). THLE-2 were purchased from American Type Culture Collection (Manassas, Va.). PH5CH were donated by Dr. Masayuki Noguchi (University of Tsukuba, Ibaraki, Japan). THLE-2 and PH5CH have been immortalized through stable transfection of the SV40 large T antigen in normal hepatocytes, and are thus cell lines that are representative of normal hepatocytes rather than HCC cells. […] All cell lines were cultured and maintained in 5% CO2 at 37° C. Huh-7 were maintained in the culture media DMEM/F12 (Dulbecco's Modified Eagle Medium) with 10% Fetal bovine serum (FBS), 100 µg/mL penicillin, 100 units/mL streptomycin, and 50 µg/mL normocin. THLE-2 and PH5CH were maintained in the culture media Brochial Epithelial Growth Media (BEGM) with 10% FBS, 100 µg/mL penicillin, 100 units/mL streptomycin, with the following additives form the prepackaged kit: Bovine pituitary extract (BPE), insulin, hydrocortisone, retinoic acid, transferrin, triiodothyronine, supplemented with 5 ng/ml human epidermal growth factor and 70 ng/ml phosphoethanolamine (Lonza Walkersville Inc., Walkersville, Md.).
(§2) Huh7 cells were plated on 96-well plates at 2.0×10^4 cells per well to permit grow in the presence of compounds of the disclosure. Compounds of the disclosure were prediluted and transferred to cell plates by automated liquid handling. Cells were incubated with compounds of the disclosure for 72 hours, after which culture growth and viability were assessed by addition of 50 µg/mL 3-(4,5-Dimethyl-2-thiazolyl)-2,5-diphenyl-2H-tetrazolium bromide (MTT) incubation for 4 hours at 37° C. Solubilization buffer (0.01M HCl, 10% SDS) was added followed by incubation at 37° C. overnight. Absorbance was measured at 570 nm (reference 630 nm). […] Each compound was tested from 2 to 7 times in separate assay trials.
Selectivity of toxicity in HCC-derived cells over normal liver-derived cells is important for the purposes of developing a therapy that specifically targets the cancer with low toxcity for the […]. The Selective Index (SI) is the ratio of CC50 in normal cells (THLE2 or PHSCH) over the CC50 in the liver cancer derived cells; thus, the higher the number, the lower the potential toxicity at an efficacious dose.
Selectivity in table 6 is defined as the ratio of CC50 between Huh7 and THLE2 and/or PH5CH (normal hepatocyte-derived) cell.

[2] = MTT cell viability / cytotoxicity assay (CC50), 72 hours; format: cell-based; conditions: human, 72 hours incubation, concentration that reduces signal of viable cells by 50%, table title names Huh-7, THLE2 and PH5CH cells, cell line not given
Source text: as §1
as §2, with “nm). Compound of the disclosure were tested in Huh7, THLE-2 and PH5CH, over eight-point dilutions in half-log steps, testing 50.0, 16.6, 5.0, 1.66, 0.5, 0.166, 0.05, and 0.016 µM in 0.5% DMSO, with each concentration in duplicate wells.” for “nm).”

| SMILES | Selectivity [1] | CC50 at 72 h [2] |
| --- | --- | --- |
| CCOC(=O)c1sc(NCc2ncccn2)nc1-c1ccccn1 [Entry 17] | ≤5.0 | ≥ 50 µM |
| O=C(Nc1ncccn1)Nc1nc(-c2ccccn2)cs1 [Entry 3] | ≤5.0 | ≥ 50 µM |
| O=C([O-])CCc1sc(Nc2ncccn2)nc1-c1ccccn1.[Na+] [Entry 12] | ≤5.0 |  |
| CCOCc1sc(NCc2ncccn2)nc1-c1ccccn1 [Entry 8] | ≤5.0 | ≥ 50 µM |
| CCOCc1sc(Nc2nccc(C)n2)nc1-c1ccccn1 [Entry 7] | ≤5.0 | < 50 µM |
| CCOC(=O)c1sc(Nc2ncccn2)nc1-c1cc(C(F)(F)F)ccn1 [Entry 24] | >5.0 | < 50 µM |
| CCOC(=O)Cc1sc(Nc2ncccn2)nc1-c1ccccn1 [Entry 15] | >5.0 | < 50 µM |
| CC(C)OC(=O)c1sc(Nc2ncccn2)nc1-c1cnccn1 [Entry 25] | >5.0 | < 50 µM |
| CCOC(=O)c1sc(Nc2nccc(C)n2)nc1-c1ncccc1C [Entry 4] | ≤5.0 | ≥ 50 µM |
| CCOC(=O)c1sc(Nc2ncccn2)nc1-c1ccncn1 [Entry 23] | >5.0 | < 50 µM |
| CC(C)OC(=O)C1=C(c2ccncn2)NC(Nc2ncccn2)S1 (stereo not drawn) [Entry 22] | >5.0 | < 50 µM |
| CC(C)OC(=O)c1sc(N(COP(=O)(OC(C)(C)C)OC(C)(C)C)c2ncccn2)nc1-c1cnccn1 [Entry 28] | >5.0 | < 50 µM |
| CCOC(=O)Cc1sc(NCc2ncccn2)nc1-c1ccccn1 [Entry 16] | ≤5.0 | < 50 µM |
| CCOC(=O)CCc1sc(NCc2ncccn2)nc1-c1ccccn1 [Entry 10] | ≤5.0 | ≥ 50 µM |
| CCOCc1sc(Nc2ncccn2)nc1-c1ccccn1 [Entry 6] | >5.0 | < 50 µM |
| c1ccc(-c2csc(NCc3ncccn3)n2)nc1 [Entry 2] | ≤5.0 | < 50 µM |
| COCCOCN(c1ncccn1)c1nc(-c2cnccn2)c(C(=O)OC(C)C)s1 [Entry 29] | ≤5.0 | ≥ 50 µM |
| CCOC(=O)Cc1sc(Nc2nccc(C)n2)nc1-c1ccccn1 [Entry 18] | ≤5.0 | < 50 µM |
| CCOC(=O)c1sc(Nc2ncccn2)nc1-c1cnccn1 [Entry 20] | >5.0 | < 50 µM |
| O=C(O)CCc1sc(NCc2ncccn2)nc1-c1ccccn1 [Entry 13] | ≤5.0 | ≥ 50 µM |
| CC(C)OC(=O)OCN(c1ncccn1)c1nc(-c2cnccn2)c(C(=O)OC(C)C)s1 [Entry 26] | >5.0 | < 50 µM |
| CC(C)OC(=O)c1sc(Nc2ncccn2)nc1-c1ncccn1 [Entry 19] | >5.0 | < 50 µM |
| CC(C)OC(=O)c1sc(N(COP(=O)(OC(C)(C)C)OC(C)(C)C)c2ncccn2)nc1-c1ccccn1 [Entry 27] | >5.0 | < 50 µM |
| CC(C)OC(=O)c1sc(Nc2ncccn2)nc1-c1ccccn1 [Entry 21] | >5.0 | < 50 µM |
| CCOC(=O)c1sc(NCc2ncccn2)nc1-c1ncccc1C [Entry 5] | ≤5.0 | ≥ 50 µM |
| CCOC(=O)CCc1sc(Nc2ncccn2)nc1-c1ccccn1 [Entry 9] | >5.0 | < 50 µM |
| O=C(O)CCc1sc(Nc2ncccn2)nc1-c1ccccn1 [Entry 11] | ≤5.0 | < 50 µM |
| O=C([O-])CCc1sc(NCc2ncccn2)nc1-c1ccccn1.[Na+] [Entry 14] | ≤5.0 |  |
